What all share (experiment): DTP human tumour cell line panel, 48 h
In test [1] the test system is A549 NSCLC.
The subject of test [2] is EKVX NSCLC.
Test [3] concerns HT29 colon.
For test [4], the system named is LOX IMVI melanoma.
Test [5] deals with NCI-H460 lung.
For test [6], the system named is NCI-H522 lung.
The subject of test [7] is OVCAR-5 ovarian.
Test [8] has as its system IGROV1 ovarian.
Test [9] concerns M14 melanoma.

This note sets out measurements from PubChem BioAssay (NCI).

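1) Cells in 96-well plates. 2) Compound, 48 h, 5 concentrations. 3) Linear interpolation between surrounding doses. 4) Unreached endpoint = highest concentration. GI50: concentration for 50% inhibition of growth. TGI is the concentration that stops growth completely.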

As a reminder, the GI50 is the concentration giving 50% growth inhibition. For orientation: TGI means the concentration giving total growth inhibition. Lower therefore signals greater sensitivity of the cells. For `O=C1c2ccccc2-c2c1c1ccccc1c(=O)n2CCNCCNCCNCCNCCn1c2c(c3ccccc3c1=O)C(=O)c1ccccc1-2`, the GI50 in test [1] was 0.59 µM; in test [2], 0.677 µM; in test [3], 0.0986 µM; in test [4], 0.0182 µM; in [5], 0.0669 µM; in [6], 0.0202 µM. For the same compound, the GI50 in [7] was > 100 µM. Besides, the concentration for total growth inhibition (TGI) in [1] amounted to 3.23 µM; in [2], 2.7 µM; in test [3], 4.07 µM; in test [4], 0.0703 µM; in test [5] it was 1.99 µM; in test [6], 0.474 µM. Besides, the TGI in test [7] was > 100 µM.

As for `O=C(Cc1nc2ccccc2s1)C(=O)Nc1cccc(C(F)(F)F)c1`, the TGI in test [1], in test [2], in [3], in test [8], in test [9] and in test [5] was > 100 µM each time. For the same compound, the TGI in test [6] was > 100 µM.

Consider `CCOC(=N)CC(=O)Nc1ccccc1CC`, for which the TGI in [1], in test [2], in test [3], in [8], in test [4] and in test [9] was > 100 µM in each case. Besides, the TGI in test [5], in test [6] and in [7] was > 100 µM throughout.

As for `C[C@@H]1CC2(C[C@@H](C)C3[C@@H](CC4(C)CCCC5C6=CC(O)(CC[C@]34C)OC6=CC(=O)OC5(C)C)O2)OC1=O` (some centres not stated), the concentration for total growth inhibition (TGI) in test [1], in test [8], in test [4], in test [9], in test [6] and in [7] was > 100 µM throughout.

Turning to `N.N.N.N.O=S([O-])[O-].[Co+3].[N-]=[N+]=[N-]`, the GI50 in test [1], in [2], in [3], in test [8], in [4] and in [9] was > 100 µM throughout. The values for the GI50 in [5], in test [6] and in test [7] were > 100 µM, 42.3 µM and > 100 µM, respectively. Further, the TGI in [1], in test [2], in test [3], in [8], in test [4] and in [9] was > 100 µM throughout. For the same compound, the TGI in test [5], in [6] and in [7] was > 100 µM each time.

`CC(NC1CCCC[C@@H]1O)c1ccccc1` (some centres not stated): the concentration for total growth inhibition (TGI) in test [1], in test [2], in test [3], in test [8], in [4] and in test [9] was > 100 µM throughout. The total growth inhibition concentration (TGI) in test [5] and in test [7] was > 100 µM each time.

For `COC(=O)CCC(NC(=S)N/N=C(\C)c1cccs1)C(=O)OC` (configuration not stated), the TGI in [1], in test [2], in test [3], in test [8], in test [4] and in test [9] was > 100 µM throughout. The total growth inhibition concentration (TGI) in test [5], in test [6] and in test [7] was > 100 µM throughout.

`O=C(C#Cc1ccccc1)NC/C=C/c1ccccc1`: the total growth inhibition concentration (TGI) in test [1], in test [2], in test [3], in test [8], in test [4] and in [9] was > 100 µM in each case. Further, the TGI in test [5] is > 100 µM; in test [6], 96.6 µM; in test [7], > 100 µM.

Take `C[C@]12CC[C@H](OC(=O)Nc3ccccc3)CC1=CC[C@@H]1C2CC[C@]2(C)/C(=N/OC(=O)Nc3ccccc3)CCC12` (some centres not stated): the concentration for total growth inhibition (TGI) in [1], in [2], in [3], in test [8], in [4] and in test [9] was > 100 µM throughout. In addition, the total growth inhibition concentration (TGI) in test [5] and in [7] was > 100 µM each time.

With `O=C(Nc1ccccc1)N1C(c2ccccc2)=N[C@@H](c2ccccc2)[C@@H]1c1ccccc1`, the concentration for total growth inhibition (TGI) in test [1] was 52 µM; in test [2] it was > 100 µM; in test [3], 31.6 µM; in test [8], 53.4 µM; in [4], 28.2 µM; in test [9], 28.2 µM. The TGI in test [5] is > 100 µM; in test [7], 45.1 µM.

On to `C/C(=C\c1ccccc1)C(=O)c1c(C)cc(C)cc1C`, for which the TGI in test [1], in test [2], in test [3], in test [8], in test [9] and in test [5] was > 100 µM throughout. Moreover, the total growth inhibition concentration (TGI) in [6] is > 100 µM.

As to `O=C(NCCCN1CCN(CCCNC(=O)Nc2cc(Cl)ccc2Cl)CC1)Nc1cc(Cl)ccc1Cl`, the TGI in [1], in test [3], in test [8], in [4], in [9] and in test [5] was > 100 µM in each case. Moreover, the TGI in test [6] and in test [7] was > 100 µM throughout.

`CN(C)C(=S)/N=c1\ssc(=Nc2ccccc2)n1-c1ccccc1`: the TGI in test [1] is > 100 µM; in [2] it was 94.4 µM; in test [3], > 100 µM; in test [8], > 100 µM; in test [4], 87 µM; in test [9] it was 44.2 µM. Further, the TGI in test [6] is 34 µM; in test [7], > 100 µM.

With `NCCOCCOCC(=O)O`, the total growth inhibition concentration (TGI) in [1], in test [2], in test [3], in [8], in test [6] and in [7] was > 100 µM throughout.

Take `Nc1ccc(C(=O)N/C(=C\c2ccc3c(c2)OCO3)c2nc3ccccc3s2)cc1`: the concentration for total growth inhibition (TGI) stood at 31 µM in test [1]; 25.9 µM in test [2]; 25.8 µM in [3]; 31.7 µM in [8]; 23.9 µM in test [9]; 28.5 µM in [6]. The concentration for total growth inhibition (TGI) in test [7] stood at 36.5 µM.
